The subject of assay [1] is HCT116 FOP control reporter cell line. The experiment in a line: HCT116 FOPFlash control reporter assay (FOP control vector, non-functional TCF elements). The format is cell-based. Conditions: HCT116 FOP control reporter cells, 36 hours incubation, luciferase expression. The source says:
In a parallel approach, HCT116 cells were cotransfected with the FOP control vector and pcDNA3. The FOP vector is identical to the TOP construct, but it contains instead of functional TCF elements a randomized, non-functional sequence. For this transfection a stable transfected cell line was generated as well.

Assay [2] deals with constitutive active colorectal cancer cell (CRC) Wnt pathway. The experiment in a line: HCT116 TOPFlash cellular reporter assay (Super TopFlash luciferase), constitutive active Wnt pathway. Format: cell-based. Conditions: HCT116 TOP reporter cells, 36 hours incubation, luciferase expression. The procedure: In order to discover and characterize small molecules which inhibit the constitutive active colorectal cancer cell (CRC) Wnt pathway, a cellular reporter assay was employed. […] Stable transfectants were generated by cotransfection with pcDNA3 and selection of stable transfected cells with 1 mg/ml G418.
(In general: In a reporter assay the amount or activity of a reporter protein is the signal.)

This passage reports IC50 results from US10130633B2, “Compounds” (BAYER PHARMA AKTIENGESELLSCHAFT, priority 2013, dated 2018).

pIC50: −log10 of the molar value. Structures can show the parent of a compound that is named as a salt. Where only a bound is given, the exact number is not on record here.

For orientation: pIC50 means −log10 of the IC50, conventionally taken in molar units. The low end stands for a large IC50, the high end for a small IC50. As to `Cc1ccccc1-c1nnc(NC(=O)c2ccc(OC(F)(F)F)c(NC(=O)C3(N4CCN(C)CC4)CC3)c2)s1` [Example 271, N-[5-(2-methylphenyl)-1,3,4-thiadiazol-2-yl]-3-({[1-(4-methylpiperazin-1-yl)cyclopropyl]carbonyl}amino)-4-(trifluoromethoxy)benzamide], the pIC50 in assay [1] (Homo sapiens, HCT-116, 36 h) was ≤ 4.30; in assay [2] (Homo sapiens, HCT-116, 36 h) it was 6.32.

For `CC(C(=O)Nc1cc(NC(=O)c2ccc(-c3cccc(F)c3)nc2)ccc1OC(F)(F)F)N1C[C@@H]2C[C@H]1CO2` (stereo partly drawn) [Example 199, 6-(3-fluorophenyl)-N-[3-({2-[(1S,4S)-2-oxa-5-azabicyclo[2.2.1]hept-5-yl]propanoyl}amino)-4-(trifluoromethoxy)phenyl] nicotinamide], the pIC50 in assay [1] (Homo sapiens, HCT-116, 36 h) was 5.06; in assay [2] (Homo sapiens, HCT-116, 36 h) it was 7.14.

In the case of `CC[C@H](C(=O)Nc1cc(C(=O)Nc2nnc(-c3ccccc3)s2)ccc1OC(F)(F)F)N1CCN(C)CC1` [Example 274, 3-{[(2R)-2-(4-methylpiperazin-1-yl)butanoyl]amino}-N-(5-phenyl-1,3,4-thiadiazol-2-yl)-4-(trifluoromethoxy)benzamide], the pIC50 in assay [1] (Homo sapiens, HCT-116, 36 h) was ≤ 4.30; in assay [2] (Homo sapiens, HCT-116, 36 h), 5.52.

Regarding `O=C(CN1CCN(CC(F)F)CC1)Nc1cc(C(=O)Nc2ccc(-c3ccccc3F)nc2)ccc1OC(F)(F)F` [Example 100, 3-({[4-(2,2-difluoroethyl)piperazin-1-yl]acetyl}amino)-N-[6-(2-fluorophenyl)pyridin-3-yl]-4-(trifluoromethoxy)benzamide], the negative logarithm of the IC50 (pIC50) was ≤ 4.30 in assay [1] (Homo sapiens, HCT-116, 36 h) and 6.07 in assay [2] (Homo sapiens, HCT-116, 36 h).

In the case of `COCc1ccc(C(=O)Nc2nnc(-c3ccccc3C)s2)cc1NC(=O)CN1CCN(C)CC1` [Example 177, 4-(methoxymethyl)-N-[5-(2-methylphenyl)-1,3,4-thiadiazol-2-yl]-3-{[(4-methylpiperazin-1-yl)acetyl]amino}benzamide hydrochloride (1:1)], the pIC50 in assay [1] (Homo sapiens, HCT-116, 36 h) was 4.46; in assay [2] (Homo sapiens, HCT-116, 36 h) it was 6.34.

For the compound `C[C@@H](C(=O)Nc1cc(C(=O)Nc2ccc(-c3ccc(CO)cc3)nc2)ccc1OC(F)(F)F)N1CCOCC1` (single isomer, unassigned) [Example 120, N-{6-[4-(hydroxymethyl)phenyl]pyridin-3-yl}-3-{[(2S)-2-(morpholin-4-yl)propanoyl]amino}-4-(trifluoromethoxy)benzamide or N-{6-[4-(hydroxymethyl)phenyl]pyridin-3-yl}-3-{[(2R)-2-(morpholin-4-yl)propanoyl]amino}-4-(trifluoromethoxy)benzamide], the figures for the pIC50 in assay [1] and in assay [2] were ≤ 4.30 and 6.98, respectively.

On to `CC(C(=O)Nc1cc(C(=O)Nc2ccc(-c3cc(F)cc(F)c3)nc2)ccc1OC(F)(F)F)N1CC2CCC(C1)O2` (stereo not drawn) [Example 215, N-[6-(3,5-difluorophenyl)pyridin-3-yl]-3-{[2-(8-oxa-3-azabicyclo[3.2.1]oct-3-yl)propanoyl]amino}-4-(trifluoromethoxy)benzamide], for which the pIC50 was 5.48 in assay [1] and 6.61 in assay [2].

Regarding `O=C(CN1CCCOCC1)Nc1cc(C(=O)Nc2nnc(-c3ccccc3)s2)ccc1OC(F)(F)F` [Example 169, 3-[(1,4-oxazepan-4-ylacetyl)amino]-N-(5-phenyl-1,3,4-thiadiazol-2-yl)-4-(trifluoromethoxy)benzamide], the pIC50 was ≤ 4.30 in assay [1] (Homo sapiens, HCT-116, 36 h) and 7.18 in assay [2] (Homo sapiens, HCT-116, 36 h).

As to `CC(C(=O)Nc1cc(C(=O)Nc2ccc(-c3ccccc3F)nc2)ccc1OC(F)(F)F)N1CCN(C2CC2)CC1` (stereo not drawn) [Example 250, 3-{[2-(4-cyclopropylpiperazin-1-yl)propanoyl]amino}-N-[6-(2-fluorophenyl)pyridin-3-yl]-4-(trifluoromethoxy)benzamide], the pIC50 in assay [1] is 4.51; in assay [2], 6.72.

On to `O=C(CN1CCOCC1)Nc1cc(C(=O)Nc2nnc(-c3ccc(F)cc3)s2)ccc1OC(F)(F)F` [Example 99, N-[5-(4-fluorophenyl)-1,3,4-thiadiazol-2-yl]-3-[(morpholin-4-ylacetyl)amino]-4-(trifluoromethoxy)benzamide], for which the pIC50 in assay [1] (Homo sapiens, HCT-116, 36 h) is 5.03; in assay [2] (Homo sapiens, HCT-116, 36 h) it was 6.03.

Regarding `CC(C(=O)Nc1cc(C(=O)Nc2nnc(-c3ccccc3)s2)ccc1CS(C)(=O)=O)N1CCN(C)CC1` (stereo not drawn) [Example 88, 3-{[2-(4-methylpiperazin-1-yl)propanoyl]amino}-4-[(methylsulfonyl)methyl]-N-(5-phenyl-1,3,4-thiadiazol-2-yl)benzamide], the pIC50 in assay [1] was ≤ 4.30; in assay [2] it was 6.38.

For the compound `Cc1cccc(-c2nnc(NC(=O)c3ccc(OC(F)(F)F)c(NC(=O)CN4CCN(C)CC4)c3)s2)c1` [Example 145, N-[5-(3-methylphenyl)-1,3,4-thiadiazol-2-yl]-3-{[(4-methylpiperazin-1-yl)acetyl]amino}-4-(trifluoromethoxy)benzamide], the pIC50 in assay [1] (Homo sapiens, HCT-116, 36 h) is ≤ 4.30; in assay [2] (Homo sapiens, HCT-116, 36 h), 6.82.

As to `O=C(CN1CCN(C2CC2)CC1)Nc1cc(C(=O)Nc2ccc(-c3ccccc3F)nc2)ccc1C(F)(F)F` [Example 227, 3-{[(4-cyclopropylpiperazin-1-yl)acetyl]amino}-N-[6-(2-fluorophenyl)pyridin-3-yl]-4-(trifluoromethyl)benzamide], the pIC50 in assay [1] (Homo sapiens, HCT-116, 36 h) is 4.99; in assay [2] (Homo sapiens, HCT-116, 36 h), 6.61.

Consider `COc1cccc(-c2nnc(NC(=O)c3ccc(OC(F)(F)F)c(NC(=O)CN4CCN(C)CC4)c3)s2)c1` [Example 146, N-[5-(3-methoxyphenyl)-1,3,4-thiadiazol-2-yl]-3-{[(4-methylpiperazin-1-yl)acetyl]amino}-4-(trifluoromethoxy)benzamide], for which the pIC50 was ≤ 4.30 in assay [1] (Homo sapiens, HCT-116, 36 h) and 6.44 in assay [2] (Homo sapiens, HCT-116, 36 h).

On to `O=C(CN1CCOCC1)Nc1cc(C(=O)Nc2ncc(-c3ccccc3)s2)ccc1C(F)(F)F` [Example 12, 3-[(morpholin-4-ylacetyl)amino]-N-(5-phenyl-1,3-thiazol-2-yl)-4-(trifluoromethyl)benzamide], for which the pIC50 was ≤ 4.30 in assay [1] (Homo sapiens, HCT-116, 36 h) and 6.28 in assay [2] (Homo sapiens, HCT-116, 36 h).

On to `CC(C(=O)Nc1cc(NC(=O)c2ccc(-c3ccccc3F)nc2)ccc1OC(F)(F)F)N1CCOCC1` (stereo not drawn) [Example 213, 6-(2-fluorophenyl)-N-[3-{[2-(morpholin-4-yl)propanoyl]amino}-4-(trifluoromethoxy)phenyl] nicotinamide], for which the pIC50 is ≤ 4.30 in assay [1] and 6.85 in assay [2].

Consider `O=C(CN1CCOCC1)Nc1cc(C(=O)Nc2nnc(-c3ccccc3F)s2)ccc1OC(F)(F)F` [Example 127, N-[5-(2-fluorophenyl)-1,3,4-thiadiazol-2-yl]-3-[(morpholin-4-ylacetyl)amino]-4-(trifluoromethoxy)benzamide], for which the pIC50 in assay [1] (Homo sapiens, HCT-116, 36 h) is ≤ 4.30; in assay [2] (Homo sapiens, HCT-116, 36 h), 6.05.

With `CS(=O)(=O)c1ccc(C(=O)Nc2ccc(-c3ccccc3F)nc2)cc1NC(=O)CN1CCOCC1` [Example 139, N-[6-(2-fluorophenyl)pyridin-3-yl]-4-(methylsulfonyl)-3-[(morpholin-4-ylacetyl)amino]benzamide], the pIC50 was 4.60 in assay [1] (Homo sapiens, HCT-116, 36 h) and 6.30 in assay [2] (Homo sapiens, HCT-116, 36 h).

In the case of `C[C@@H](C(=O)Nc1cc(C(=O)Nc2ccc(-c3ccc(N(C)C)cc3)nc2)ccc1OC(F)(F)F)N1CCOCC1` (single isomer, unassigned) [Example 116, N-{6-[4-(dimethylamino)phenyl]pyridin-3-yl}-3-{[(2S)-2-(morpholin-4-yl)propanoyl]amino}-4-(trifluoromethoxy)benzamide or N-{6-[4-(dimethylamino)phenyl]pyridin-3-yl}-3-{[(2R)-2-(morpholin-4-yl)propanoyl]amino}-4-(trifluoromethoxy)benzamide], the pIC50 in assay [1] is 5.09; in assay [2], 7.08.

As for `O=C(CN1CC2CCC(C1)O2)Nc1cc(C(=O)Nc2ccc(-c3ccccc3F)nc2)ccc1C(F)(F)F` [Example 226, N-[6-(2-fluorophenyl)pyridin-3-yl]-3-[(8-oxa-3-azabicyclo[3.2.1]oct-3-ylacetyl)amino]-4-(trifluoromethyl)benzamide], the pIC50 in assay [1] (Homo sapiens, HCT-116, 36 h) was 5.19; in assay [2] (Homo sapiens, HCT-116, 36 h) it was 6.61.

On to `O=C(CN1CCOCC1)Nc1cc(NC(=O)c2noc(-c3ccccc3)n2)ccc1OC(F)(F)F` [Example 121, N-{3-[(morpholin-4-ylacetyl)amino]-4-(trifluoromethoxy)phenyl}-5-phenyl-1,2,4-oxadiazole-3-carboxamide], for which the pIC50 in assay [1] (Homo sapiens, HCT-116, 36 h) was ≤ 4.30; in assay [2] (Homo sapiens, HCT-116, 36 h), 6.08.

Turning to `O=C(CN1CC2CCC(C1)O2)Nc1cc(C(=O)Nc2ccc(-c3cc(F)cc(F)c3)nc2)ccc1OC(F)(F)F` [Example 73, N-[6-(3,5-difluorophenyl)pyridin-3-yl]-3-[(8-oxa-3-azabicyclo[3.2.1]oct-3-ylacetyl)amino]-4-(trifluoromethoxy)benzamide], the pIC50 in assay [1] (Homo sapiens, HCT-116, 36 h) is ≤ 4.30; in assay [2] (Homo sapiens, HCT-116, 36 h), 7.01.

For the compound `CC(C(=O)Nc1cc(C(=O)Nc2ccc(-c3ccccc3F)nc2)ccc1OC(F)(F)F)N1CCN(C2CC2)CC1` (stereo not drawn) [Example 196, 3-{[2-(4-cyclopropylpiperazin-1-yl)propanoyl]amino}-N-[6-(2-fluorophenyl)pyridin-3-yl]-4-(trifluoromethoxy)benzamide], the pIC50 is ≤ 4.30 in assay [1] (Homo sapiens, HCT-116, 36 h) and 6.84 in assay [2] (Homo sapiens, HCT-116, 36 h).

`CN1CCN(C2(C(=O)Nc3cc(C(=O)Nc4ccc(-c5ccccc5F)nc4)ccc3OC3CC3)CC2)CC1` [Example 135, 4-(cyclopropyloxy)-N-[6-(2-fluorophenyl)pyridin-3-yl]-3-({[1-(4-methylpiperazin-1-yl)cyclopropyl]carbonyl}amino)benzamide]: the pIC50 in assay [1] (Homo sapiens, HCT-116, 36 h) is ≤ 4.30; in assay [2] (Homo sapiens, HCT-116, 36 h), 7.07.
